Measurements published in US10618903B2, “Heteroaryl substituted aminopyridine compounds” (BRISTOL-MYERS SQUIBB COMPANY, priority 2015, dated 2020).

Tests used:
IRAK4 = IRAK4 (Homo sapiens (Human), UniProt Q9NWZ3); test: IRAK4 Inhibition Assay; assay type: biochemical; conditions: ATP 500 μM; IRAK4 0.6 nM
Method in brief: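 Mobility-shift kinase assay: 0.6 nM IRAK4, 500 μM ATP, 1.5 μM fluorescent peptide, 60 min, room temperature. Percent inhibition was normalised between enzyme-free and DMSO-only wells.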

[1] = test system: IL-6 levels in human whole blood stimulated with a TLR2 agonist; test: IRAK4 Whole Blood Assay (lipoteichoic acid/TLR2-stimulated IL-6); assay type: cell-based; conditions: Homo sapiens, lipoteichoic acid 10 μg/mL, IL-6 readout
Method in brief: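 IL-6 was quantified by cytometric bead assay in supernatants of human blood (ACD-A) stimulated for 5 h with lipoteichoic acid at 10 μg/mL final. Compound exposure preceded stimulation for 60 min at 37 °C, 5% CO2.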

Caco Permeability Assay = assay type: in vitro ADME; conditions: human, Caco-2, Caco-2 cells, 3 μM compound
Description: Thirteen to 27 days prior to assay, Caco-2 cells were seeded onto collagen-coated polycarbonate filter membranes in 24-well transwell plates at a density of 1.45×10^5 cells/cm^2, approximately 4.8×10^4 cells per well. The cells were grown in a culture medium consisting of DMEM supplemented with 10% fetal bovine serum, 10 mM HEPES, 1% nonessential amino acids, 2 mM L-glutamine, 100 U/mL penicillin-G, and 100 μg/mL streptomycin. The culture medium was replaced every 3 days and the cells were maintained at 37° C. in a 95% relative humidity and 5% CO2 atmosphere. The cells were evaluated for tight junction formation just prior to assay. The test compound was solubilized to 10 mM in 100% DMSO and diluted to 3 μM in assay buffer. Permeability studies were initiated by adding 200 μL assay buffer plus/minus compound to the apical transwell compartment and 600 μL assay buffer plus/minus compound to the basolateral compartment of the 24-well transwell low-binding cluster plate. For apical-to-basolateral (A to B) permeability (absorptive direction), buffer containing compound was placed in the apical compartment (donor wells), while buffer alone was placed in the corresponding basolateral compartments (receiver wells). For basolateral-to-apical (B to A) permeability (secretive direction), buffer containing compound was placed in the basolateral compartment (donor wells), while buffer alone was placed in the corresponding apical compartments (receiver wells). Transwells were then incubated for 2 hours at 37° C. in a 95% relative humidity and 5% CO2 atmosphere with gentle agitation. Following incubation, 100 μL was removed from each apical and basolateral compartment and transferred to 96-well low binding plates that had been previously loaded with 100 µL/well of acetonitrile containing 250 nM propranolol, 250 nM diclofenac, and 500 nM tolbutamide as internal standards. The samples were subsequently analyzed by LC-MS/MS to determine concentrations of compound.

Chain of IRAK4 (Q9NWZ3 whole entry): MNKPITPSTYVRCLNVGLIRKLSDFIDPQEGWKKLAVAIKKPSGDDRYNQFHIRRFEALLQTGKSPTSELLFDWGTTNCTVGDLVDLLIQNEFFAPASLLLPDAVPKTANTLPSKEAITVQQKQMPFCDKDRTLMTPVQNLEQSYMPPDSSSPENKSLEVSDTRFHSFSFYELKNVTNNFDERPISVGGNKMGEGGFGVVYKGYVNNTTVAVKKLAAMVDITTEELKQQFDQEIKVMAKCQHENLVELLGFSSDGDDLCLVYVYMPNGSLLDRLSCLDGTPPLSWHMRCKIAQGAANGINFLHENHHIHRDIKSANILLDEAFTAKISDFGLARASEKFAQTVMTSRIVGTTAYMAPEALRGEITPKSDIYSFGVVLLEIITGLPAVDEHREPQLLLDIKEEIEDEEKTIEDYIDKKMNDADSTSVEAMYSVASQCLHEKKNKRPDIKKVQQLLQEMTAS

Compound | IC50 (IRAK4) [nM] | EC50 [1] [nM] | Papp at 2 h, 3 µM (Caco Permeability Assay) [×10⁻⁶ cm/s]
CC(=O)N[C@H]1CC[C@H](NC(=O)c2cnc(-c3cnn4cc(Cl)cnc34)cc2NC(C)C)CC1 [Example 23, N-((1r,4r)-4-acetamidocyclohexyl)-6-(6-chloropyrazolo[1,5-a]pyrimidin-3-yl)-4-(isopropylamino) nicotinamide] | 10 | 720 | 1.8
CC(C)(O)[C@H](F)CNC(=O)c1cnc(-c2cnn3cc(Cl)cnc23)cc1Nc1ccc(C(N)=O)cc1 [Example 33, (R)-4-((4-carbamoylphenyl)amino)-6-(6-chloropyrazolo[1,5-a]pyrimidin-3-yl)-N-(2-fluoro-3-hydroxy-3-methylbutyl) nicotinamide] | 2 | 350 | < 1.5
CNC(=O)c1ccc(Nc2cc(-c3cnn4cc(Cl)cnc34)ncc2C(=O)NC[C@@H](F)C(C)(C)O)cc1 [Example 34, (R)-6-(6-chloropyrazolo[1,5-a]pyrimidin-3-yl)-N-(2-fluoro-3-hydroxy-3-methylbutyl)-4-((4-(methylcarbamoyl)phenyl)amino)nicotinamide] | 2 | 360 | < 1.5
CC(C)Nc1cc(-c2cnn3cc(Cl)cnc23)ncc1C(=O)NCC(F)C1(O)COC1 (stereo not drawn) [Example 37, 6-(6-chloropyrazolo[1,5-a]pyrimidin-3-yl)-N-(2-fluoro-2-(3-hydroxyoxetan-3-yl)ethyl)-4-(isopropylamino)nicotinamide] | 6 | 700 | 4.8
CC(C)(O)[C@H]1CC[C@H](NC(=O)c2cnc(-c3cnn4cc(Cl)cnc34)cc2NC2COC2)CC1 [Example 40, 6-(6-chloropyrazolo[1,5-a]pyrimidin-3-yl)-N-((1r,4r)-4-(2-hydroxypropan-2-yl)cyclohexyl)-4-(oxetan-3-ylamino)nicotinamide] | 4 | 1720 | 22.1
CC(C)(O)CCNC(=O)c1cnc(-c2cnn3cc(Cl)cnc23)cc1NC1COC1 [Example 47, 6-(6-chloropyrazolo[1,5-a]pyrimidin-3-yl)-N-(3-hydroxy-3-methylbutyl)-4-(oxetan-3-ylamino)nicotinamide] | 8 | 350 | 17.3
CC(C)(O)[C@H](F)CNC(=O)c1cnc(-c2cnn3cc(Cl)cnc23)cc1Nc1cnn(C2COC2)c1 [Example 48, (R)-6-(6-chloropyrazolo[1,5-a]pyrimidin-3-yl)-N-(2-fluoro-3-hydroxy-3-methylbutyl)-4-((1-(oxetan-3-yl)-1H-pyrazol-4-yl)amino)nicotinamide] | 1 | 300 | 2.6
CC(C)Nc1cc(-c2cnn3cc(Cl)cnc23)ncc1C(=O)N[C@H]1CC[C@H](NC(=O)[C@H](C)O)CC1 [Example 49, 6-(6-chloropyrazolo[1,5-a]pyrimidin-3-yl)-N-((1S,4r)-4-((S)-2-hydroxypropanamido)cyclohexyl)-4-(isopropylamino)nicotinamide] | 18 | 2920 | < 1.5
CC(C)(O)[C@H](F)CNC(=O)c1cnc(-c2cnn3cc(Cl)cnc23)cc1Nc1cnn(C2CCOCC2)c1 [Example 52, (R)-6-(6-chloropyrazolo[1,5-a]pyrimidin-3-yl)-N-(2-fluoro-3-hydroxy-3-methylbutyl)-4-((1-(tetrahydro-2H-pyran-4-yl)-1H-pyrazol-4-yl)amino)nicotinamide] | 3 | 280 | < 1.5

Next, values leading:

IC50 (IRAK4) [nM] | EC50 [1] [nM] | Papp at 2 h, 3 µM (Caco Permeability Assay) [×10⁻⁶ cm/s] | Compound
8 | 880 | < 1.5 | CC(C)(O)c1cnc(Nc2cc(-c3cnn4cc(Cl)cnc34)ncc2C(=O)NC[C@@H](F)C(C)(C)O)s1 [Example 2, (R)-6-(6-chloropyrazolo[1,5-a]pyrimidin-3-yl)-N-(2-fluoro-3-hydroxy-3-methylbutyl)-4-((5-(2-hydroxypropan-2-yl)thiazol-2-yl)amino)nicotinamide]
3 | 100 | 17.5 | CC(C)(O)[C@H](F)CNC(=O)c1cnc(-c2cnn3cc(Cl)cnc23)cc1NC1COC1 [Example 5, (R)-6-(6-chloropyrazolo[1,5-a]pyrimidin-3-yl)-N-(2-fluoro-3-hydroxy-3-methylbutyl)-4-(oxetan-3-ylamino)nicotinamide]
2 | 11100 | 16.2 | CC(C)(O)[C@H](F)CNC(=O)c1cnc(-c2cnn3cc(Cl)cnc23)cc1NC1CC1 [Example 22, (R)-6-(6-chloropyrazolo[1,5-a]pyrimidin-3-yl)-4-(cyclopropylamino)-N-(2-fluoro-3-hydroxy-3-methylbutyl)nicotinamide]
4 | 380 | 14.2 | CC(C)(O)[C@H](F)CNC(=O)c1cnc(-c2cnn3cc(Cl)cnc23)cc1NC1CCOCC1 [Example 30, (R)-6-(6-chloropyrazolo[1,5-a]pyrimidin-3-yl)-N-(2-fluoro-3-hydroxy-3-methylbutyl)-4-((tetrahydro-2H-pyran-4-yl)amino)nicotinamide]
7 | 140 | < 1.5 | C[C@@H](CO)Nc1cc(-c2cnn3cc(Cl)cnc23)ncc1C(=O)NC[C@@H](F)C(C)(C)O [Example 31, 6-(6-chloropyrazolo[1,5-a]pyrimidin-3-yl)-N—((R)-2-fluoro-3-hydroxy-3-methylbutyl)-4-(((S)-1-hydroxypropan-2-yl)amino)nicotinamide]
4 | 710 | 24.1 | C[C@@H](CF)Nc1cc(-c2cnn3cc(Cl)cnc23)ncc1C(=O)NC[C@@H](F)C(C)(C)O [Example 32, 6-(6-chloropyrazolo[1,5-a]pyrimidin-3-yl)-N—((R)-2-fluoro-3-hydroxy-3-methylbutyl)-4-(((S)-1-fluoropropan-2-yl)amino)nicotinamide]
7 | 2730 | 5.3 | CC(C)(O)[C@H](F)CNC(=O)c1cnc(-c2cnn3cc(Cl)cnc23)cc1N[C@@H]1COC[C@H]1F [Example 44, 6-(6-chloropyrazolo[1,5-a]pyrimidin-3-yl)-N—((R)-2-fluoro-3-hydroxy-3-methylbutyl)-4-(((3R,4S)-4-fluorotetrahydrofuran-3-yl)amino)nicotinamide]
2 | 690 | 3 | CC(C)(O)[C@H]1CC[C@H](Nc2cc(-c3cnn4cc(Cl)cnc34)ncc2C(=O)NC[C@@H](F)C(C)(C)O)C1 [Example 50, 6-(6-chloropyrazolo[1,5-a]pyrimidin-3-yl)-N—((R)-2-fluoro-3-hydroxy-3-methylbutyl)-4-(((1S,3S)-3-(2-hydroxypropan-2-yl)cyclopentyl)amino)nicotinamide]
5 | 360 | 14.3 | CCNc1cc(-c2cnn3cc(Cl)cnc23)ncc1C(=O)NC[C@@H](F)C(C)(C)O [Example 56, (R)-6-(6-chloropyrazolo[1,5-a]pyrimidin-3-yl)-4-(ethylamino)-N-(2-fluoro-3-hydroxy-3-methylbutyl) nicotinamide]
14 | 350 | < 1.5 | CC(C)(O)CNc1cc(-c2cnn3cc(Cl)cnc23)ncc1C(=O)NC[C@@H](F)C(C)(C)O [Example 58, (R)-6-(6-chloropyrazolo[1,5-a]pyrimidin-3-yl)-N-(2-fluoro-3-hydroxy-3-methylbutyl)-4-((2-hydroxy-2-methylpropyl)amino)nicotinamide]
4 | 4930 | 27 | CC(C)(O)[C@H](F)CNC(=O)c1cnc(-c2cnn3cc(Cl)cnc23)cc1NC1CCC1 [Example 60, (R)-6-(6-chloropyrazolo[1,5-a]pyrimidin-3-yl)-4-(cyclobutylamino)-N-(2-fluoro-3-hydroxy-3-methylbutyl)nicotinamide]
6 | 1820 | 19.7 | C[C@H](F)CNc1cc(-c2cnn3cc(Cl)cnc23)ncc1C(=O)NC[C@@H](F)C(C)(C)O [Example 61, 6-(6-chloropyrazolo[1,5-a]pyrimidin-3-yl)-N—((R)-2-fluoro-3-hydroxy-3-methylbutyl)-4-(((S)-2-fluoropropyl)amino)nicotinamide]
